The values below are quoted from earlier work in patent publication US20220249506A1, “Meloxicam-Containing Granulated Product” (SSP Co., Ltd., priority 2019, published 2022).

The conditions of the series: low pH range of pH 5.0 or less.

Structures are written as SMILES.

Take `Cc1cnc(NC(=O)C2=C(O)c3ccccc3S(=O)(=O)N2C)s1` [meloxicam]: the Solubility in water result is given as “almost insoluble in water”.
